Laboratory results: article PMC9221748, “Construction and Characterization of T7 Bacteriophages Harboring Apidaecin-Derived Sequences” (Current Issues in Molecular Biology, 2022)
No end group written: not given here.

System: E. coli Rosetta DE3 pLysS
Assay: MIC, liquid broth microdilution assay
Type: cell-based, Escherichia coli
Details: 25% MHBII, 7.5 × 10^6 CFU/mL, 20 ± 2 h at 37 °C, turbidity at 600 nm, at least twice in triplicates
Method: Minimal inhibitory concentrations (MICs) were determined at least twice in triplicates, using a liquid broth microdilution assay in sterile 96-well plates and a total volume of 100 μL per well. Aqueous peptide solutions were serially two-fold diluted in 50 µL of 25% MHBII or LB medium (Luria/Miller). Overnight cultures were diluted in 25% MHBII or LB medium (Luria/Miller) to 1.5 × 10^7 cells per mL and an aliquot of 50 μL was added to each well. The final cell count in each well was 7.5 × 10^6 CFU/mL. The plates were incubated for 20 ± 2 h at 37 °C. The turbidity of each well was measured at 600 nm.

| Sequence | MIC [µg/mL] |
| --- | --- |
| GNNRPIYIPRPRPPHPRPIRV [Api805] | 4 |
| GNNRPVYIPRPRPPHPRL [Api801] | 2 |
